19 compounds from patent US20240228489A1, “POSITIVE ALLOSTERIC MODULATORS OF THE MUSCARINIC ACETYLCHOLINE RECEPTOR M1” (Vanderbilt University, priority 2021, published 2024) can be followed below.

A word on the EC50: it is the concentration needed to bring the measured effect to its halfway point. The Emax is the greatest response seen or fitted, relative to the assay's reference.

In assay [1] the target is T1, human mAChR M1 (Homo sapiens, UniProt P11229).
T1 sequence (P11229 1-460): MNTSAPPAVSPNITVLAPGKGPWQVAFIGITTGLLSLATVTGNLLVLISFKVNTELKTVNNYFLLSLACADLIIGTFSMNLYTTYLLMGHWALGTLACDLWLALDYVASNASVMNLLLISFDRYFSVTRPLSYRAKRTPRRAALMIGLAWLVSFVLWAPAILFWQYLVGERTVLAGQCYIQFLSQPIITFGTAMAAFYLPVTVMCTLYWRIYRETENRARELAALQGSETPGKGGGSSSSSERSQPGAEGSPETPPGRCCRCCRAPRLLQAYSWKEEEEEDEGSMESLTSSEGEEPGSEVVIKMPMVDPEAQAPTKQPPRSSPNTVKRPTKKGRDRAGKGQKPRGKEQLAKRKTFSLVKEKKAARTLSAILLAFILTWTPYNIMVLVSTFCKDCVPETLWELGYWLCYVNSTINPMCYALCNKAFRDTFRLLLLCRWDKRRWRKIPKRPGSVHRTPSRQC
In words: mAChR M1 cell-based functional assay (calcium mobilization), PAM mode: increase in the EC20 acetylcholine response. The method, boiled down: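 PAM readout is the concentration-dependent rise in the EC20 acetylcholine calcium signal, fitted to a four-parameter logistic (EC50, Emax). Compounds were preincubated from 4 s before ACh at 144 s (EC20) and 230 s (EC80). hM1-expressing CHO-K1 cells loaded with Fluo-4, FDSS ratio read.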
(A change in cytosolic calcium serves as a functional read-out for many receptors and channels.)

In assay [2] the target is T1, human mAChR M1. The assay is described as follows: mAChR M1 cell-based functional assay (calcium mobilization), agonist mode: compound alone, Emax relative to acetylcholine maximum. The note with it: for EC50 / Agonist Activity Human M1 EC50: human mAChR M1. An outline of the steps:
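Agonist activity is the concentration-dependent rise in intracellular calcium (Fluo-4, 1 Hz read) after compound addition, measured before any acetylcholine was added, in stable hM1 CHO-K1 cells. Curves were 11-point, 1:3 dilutions fitted by four-parameter logistic. Emax is given as a fraction of maximal acetylcholine response.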

Setting [3] is: relative to the maximum for acetylcholine.

As for `[2H]C1([2H])c2ncccc2C(=O)N1Cc1ccc(-c2ccc(F)c3nn(C([2H])([2H])[2H])cc23)cc1F` [Compound 54, 6-(2-fluoro-4-(7-fluoro-2-(methyl-d3)-2H-indazol-4-yl)benzyl)-6,7-dihydro-5H-pyrrolo[3,4-b]pyridin-5-one-7,7-d2], the figures for the EC50 on human mAChR M1 [1] and on human mAChR M1 [2] were 0.382 µM and above 10 µM, respectively. The maximal response (Emax) on human mAChR M1 [1] was determined as 82%; on human mAChR M1 [2] (setting [3]), 5%.

Regarding `[2H]C1([2H])c2ncccc2C(=O)N1Cc1ccc(-c2ccc(OC)c3nn(C([2H])([2H])[2H])cc23)cc1F` [Compound 55, 6-(2-fluoro-4-(7-methoxy-2-(methyl-d3)-2H-indazol-4-yl)benzyl)-6,7-dihydro-5H-pyrrolo[3,4-b]pyridin-5-one-7,7-d2], at human mAChR M1 [1], the EC50 was 0.275 µM and the Emax came to 88%. Besides, the “Agonist Activity Human M1 EC50” value at human mAChR M1 [2] is given as “Inactive”. At human mAChR M1 [2] (setting [3]), the maximal effect (Emax) was determined as 7%.

As for `[2H]C1([2H])c2ncccc2C(=O)N1Cc1ccc(-c2ccc(C)c3nn(C([2H])([2H])[2H])cc23)cc1F` [Compound 56, 6-(2-fluoro-4-(7-methyl-2-(methyl-d3)-2H-indazol-4-yl)benzyl)-6,7-dihydro-5H-pyrrolo[3,4-b]pyridin-5-one-7,7-d2], on human mAChR M1 [1], the half-maximal effective concentration (EC50) worked out at 0.317 µM and the Emax was 87%. Further, the “Agonist Activity Human M1 EC50” value at human mAChR M1 [2] is recorded as “Inactive”. The maximum response (Emax) on human mAChR M1 [2] (setting [3]) was 5%.

As to `[2H]C1([2H])c2ncccc2C(=O)N1Cc1ccc(-c2ccc(OC)c3nn(C([2H])([2H])[2H])cc23)cc1C` [Compound 57, 6-(4-(7-methoxy-2-(methyl-d3)-2H-indazol-4-yl)-2-methylbenzyl)-6,7-dihydro-5H-pyrrolo[3,4-b]pyridin-5-one-7,7-d2], the EC50 on human mAChR M1 [1] was found to be 0.288 µM. Also, the Emax on human mAChR M1 [1] worked out at 87%; at human mAChR M1 [2] (setting [3]) it was 4%. Also, on human mAChR M1 [2], the “Agonist Activity Human M1 EC50” value is “Inactive”.

Take `[2H]C1([2H])c2ncccc2C(=O)N1Cc1ccc(-c2ccc(C)c3nn(C([2H])([2H])[2H])cc23)cc1C` [Compound 58, 6-(2-methyl-4-(7-methyl-2-(methyl-d3)-2H-indazol-4-yl)benzyl)-6,7-dihydro-5H-pyrrolo[3,4-b]pyridin-5-one-7,7-d2]: on human mAChR M1 [1], the concentration for a half-maximal effect (EC50) was 0.614 µM and the Emax was found to be 83%. Besides, the “Agonist Activity Human M1 EC50” value at human mAChR M1 [2] is on record as “Inactive”. On human mAChR M1 [2] (setting [3]), the Emax is 4%.

With `[2H]C1([2H])c2ncccc2C(=O)N1Cc1c(F)cc(-c2cc(F)cc3nn(C)cc23)cc1F` [Compound 59, 6-(2,6-difluoro-4-(6-fluoro-2-methyl-2H-indazol-4-yl)benzyl)-6,7-dihydro-5H-pyrrolo[3,4-b]pyridin-5-one-7,7-d2], at human mAChR M1 [1], the EC50 was 0.222 µM and the Emax was 59%. In addition, the “Agonist Activity Human M1 EC50” value at human mAChR M1 [2] was “Inactive”. The Emax on human mAChR M1 [2] (setting [3]) was determined as 2%.

Take `[2H]C1([2H])c2ncccc2C(=O)N1Cc1c(F)cc(-c2cccc3c2cnn3C(F)F)cc1F` [Compound 60, 6-(4-(1-(difluoromethyl)-1H-indazol-4-yl)-2,6-difluorobenzyl)-6,7-dihydro-5H-pyrrolo[3,4-b]pyridin-5-one-7,7-d2]: at human mAChR M1 [1], the EC50 came to 0.693 µM and the “PAM Activity Emax” value amounted to 34%. The “Agonist Activity Human M1 EC50” value on human mAChR M1 [2] is recorded as “Inactive”. Also, the “Agonist Activity Emax” value at human mAChR M1 [2] (setting [3]) is listed as 4%.

Regarding `[2H]C1([2H])c2ncc(Br)cc2C(=O)N1Cc1c(F)cc(-c2cccc3nn(C)cc23)cc1F` [Compound 61, 3-Bromo-6-(2,6-difluoro-4-(2-methyl-2H-indazol-4-yl)benzyl)-6,7-dihydro-5H-pyrrolo[3,4-b]pyridin-5-one-7,7-d2], on human mAChR M1 [1], the concentration for a half-maximal effect (EC50) worked out at 1.36 µM and the Emax was 68%. Also, on human mAChR M1 [2], the “Agonist Activity Human M1 EC50” value is “Inactive”. For the same compound, the Emax on human mAChR M1 [2] (setting [3]) came to 8%.

Turning to `[2H]C1([2H])c2ncc(O)cc2C(=O)N1Cc1c(F)cc(-c2cccc3nn(C)cc23)cc1F` [Compound 62, 6-(2,6-Difluoro-4-(2-methyl-2H-indazol-4-yl)benzyl)-3-hydroxy-6,7-dihydro-5H-pyrrolo[3,4-b]pyridin-5-one-7,7-d2], the figures for the EC50 on human mAChR M1 [1] and at human mAChR M1 [2] were 0.108 µM and 4.34 µM, respectively. In addition, the Emax is 67% on human mAChR M1 [1] and 57% at human mAChR M1 [2] (setting [3]).

Consider `[2H]C([2H])([2H])Oc1cnc2c(c1)C(=O)N(Cc1c(F)cc(-c3cccc4nn(C)cc34)cc1F)C2([2H])[2H]` [Compound 63, 6-(2,6-Difluoro-4-(2-methyl-2H-indazol-4-yl)benzyl)-3-(methoxy-d3)-6,7-dihydro-5H-pyrrolo[3,4-b]pyridin-5-one-7,7-d2], for which the concentration for a half-maximal effect (EC50) on human mAChR M1 [1] was found to be 0.125 µM. The figures for the Emax on human mAChR M1 [1] and at human mAChR M1 [2] (setting [3]) were 89% and 3%, respectively. Moreover, on human mAChR M1 [2], the “Agonist Activity Human M1 EC50” value is listed as “Inactive”.

For the compound `[2H]C1([2H])c2ncccc2C(=O)N1Cc1c(F)cc(-c2cccc3c2cnn3C(C)C)cc1F` [Compound 64, 6-(2,6-difluoro-4-(1-isopropyl-1H-indazol-4-yl)benzyl)-6,7-dihydro-5H-pyrrolo[3,4-b]pyridin-5-one-7,7-d2], at human mAChR M1 [1], the EC50 is 1.84 µM and the Emax amounted to 79%. In addition, the “Agonist Activity Human M1 EC50” value at human mAChR M1 [2] is “Inactive”. For the same compound, on human mAChR M1 [2] (setting [3]), the Emax was determined as 2%.

With `[2H]C1([2H])c2ncccc2C(=O)N1Cc1c(F)cc(-c2cccc3c2cnn3CC)cc1F` [Compound 65, 6-(4-(1-ethyl-1H-indazol-4-yl)-2,6-difluorobenzyl)-6,7-dihydro-5H-pyrrolo[3,4-b]pyridin-5-one-7,7-d2], the half-maximal effective concentration (EC50) was 1.3 µM on human mAChR M1 [1] and above 10 µM at human mAChR M1 [2]. For the same compound, the maximum response (Emax) on human mAChR M1 [1] stood at 73%; on human mAChR M1 [2] (setting [3]) it was 2%.

Consider `[2H]C1([2H])c2ncccc2C(=O)N1Cc1c(F)cc(-c2cccc3c2cnn3C2COC2)cc1F` [Compound 66, 6-(2,6-difluoro-4-(1-(oxetan-3-yl)-1H-indazol-4-yl)benzyl)-6,7-dihydro-5H-pyrrolo[3,4-b]pyridin-5-one-7,7-d2], for which the EC50 on human mAChR M1 [1] turned out to be 2.17 µM. For the same compound, the Emax at human mAChR M1 [1] turned out to be 74%; on human mAChR M1 [2] (setting [3]) it was 2%. For the same compound, the “Agonist Activity Human M1 EC50” value at human mAChR M1 [2] was “Inactive”.

For `[2H]C1([2H])c2ncccc2C(=O)N1Cc1c(F)cc(-c2cccc3c2cnn3C([2H])([2H])[2H])cc1F` [Compound 67, 6-(2,6-difluoro-4-(1-(methyl-d3)-1H-indazol-4-yl)benzyl)-6,7-dihydro-5H-pyrrolo[3,4-b]pyridin-5-one-7,7-d2], on human mAChR M1 [1], the concentration for a half-maximal effect (EC50) stood at 0.823 µM and the maximum response (Emax) was 71%. Further, the “Agonist Activity Human M1 EC50” value on human mAChR M1 [2] is listed as “Inactive”. In addition, the Emax at human mAChR M1 [2] (setting [3]) turned out to be 2%.

Turning to `[2H]C1([2H])c2ncccc2C(=O)N1Cc1c(F)cc(-c2ccc(F)c3c2cnn3C([2H])([2H])[2H])cc1F` [Compound 68, 6-(2,6-difluoro-4-(7-fluoro-1-(methyl-d3)-1H-indazol-4-yl)benzyl)-6,7-dihydro-5H-pyrrolo[3,4-b]pyridin-5-one-7,7-d2], on human mAChR M1 [1], the concentration giving a half-maximal response (EC50) is above 10 µM and the maximal response (Emax) stood at 64%. The “Agonist Activity Human M1 EC50” value at human mAChR M1 [2] was “Inactive”. Moreover, on human mAChR M1 [2] (setting [3]), the Emax is 2%.

`[2H]C1([2H])c2ncccc2C(=O)N1Cc1c(F)cc(-c2ccc(OC)c3c2cnn3C([2H])([2H])[2H])cc1F` [Compound 69, 6-(2,6-difluoro-4-(7-methoxy-1-(methyl-d3)-1H-indazol-4-yl)benzyl)-6,7-dihydro-5H-pyrrolo[3,4-b]pyridin-5-one-7,7-d2]: the 50% effective concentration (EC50) at human mAChR M1 [1] is 2.19 µM. Moreover, the maximal response (Emax) on human mAChR M1 [1] came out at 68%; at human mAChR M1 [2] (setting [3]), 2%. In addition, the “Agonist Activity Human M1 EC50” value on human mAChR M1 [2] is listed as “Inactive”.

For the compound `[2H]C1([2H])c2ncccc2C(=O)N1Cc1c(F)cc(-c2ccc(C)c3c2cnn3C([2H])([2H])[2H])cc1F` [Compound 70, 6-(2,6-difluoro-4-(7-methyl-1-(methyl-d3)-1H-indazol-4-yl)benzyl)-6,7-dihydro-5H-pyrrolo[3,4-b]pyridin-5-one-7,7-d2], on human mAChR M1 [1], the concentration for a half-maximal effect (EC50) turned out to be 1.22 µM and the maximal effect (Emax) worked out at 65%. On human mAChR M1 [2], the “Agonist Activity Human M1 EC50” value is on record as “Inactive”. In addition, the Emax at human mAChR M1 [2] (setting [3]) was 2%.

With `[2H]C1([2H])c2ncccc2C(=O)N1Cc1ccc(-c2cc(F)cc3nn(C)cc23)cc1F` [Compound 71, 6-(2-fluoro-4-(6-fluoro-2-methyl-2H-indazol-4-yl)benzyl)-6,7-dihydro-5H-pyrrolo[3,4-b]pyridin-5-one-7,7-d2], at human mAChR M1 [1], the EC50 is 0.698 µM and the Emax worked out at 75%. For the same compound, the “Agonist Activity Human M1 EC50” value on human mAChR M1 [2] is recorded as “Inactive”. Besides, the maximal response (Emax) at human mAChR M1 [2] (setting [3]) turned out to be 1%.

Consider `[2H]C1([2H])c2ncccc2C(=O)N1Cc1ccc(-c2cc(F)cc3nn(C)cc23)cc1` [Compound 72, 6-(4-(6-fluoro-2-methyl-2H-indazol-4-yl)benzyl)-6,7-dihydro-5H-pyrrolo[3,4-b]pyridin-5-one-7,7-d2], for which the EC50 on human mAChR M1 [1] is 0.472 µM. In addition, the Emax on human mAChR M1 [1] was 75%; on human mAChR M1 [2] (setting [3]), 4%. The “Agonist Activity Human M1 EC50” value on human mAChR M1 [2] was “Inactive”.
